Tests used:
ERK1+2 = assay: Ang II-induced ERK1+2 phosphorylation in hICF, immunoblot; type: cell-based, human; settings: hICF preincubated with compound, Ang II for 30 minutes
Method: The effect of compound of Formula (VIII) on Ang II signaling pathways in hICF was investigated. ERK1+2 and NFAT activation are two pathways activated by Ang-II (Wakatsuki et al., 2004, Trends Biochem Sci, 29:609-617). hICF were preincubated with compound of Formula (VIII), treated with Ang II for 30 minutes, washed with PBS and proteins extracted in 50 μL of lysis buffer (50 mM Tris-HCl pH 7.5, 150 mM NaCl, 1% (v/v) NP-40, 10% (v/v) glycerol, 10 mM NaF, 1 mM Na3VO4, aprotinin (10 μg/ml), leupeptine (10 μg/ml), pepstatin (1 μg/ml) and 1 mM PMSF saturated). Separated proteins in 10% SDS/PAGE gels were transferred to PVDF membranes and blocked in TBS solution containing 0.1% Tween 20 and 5% bovine serum albumin (BSA) for 1 hour at room temperature. Immunodetection of specific proteins was carried out by incubation with primary antibodies against p-ERK (1:1000; #4695 Cell Signaling Technology) and ERK (1:1000, M5670, Sigma). Membranes were incubated with horseradish peroxidase-conjugated secondary antibody was added and proteins detected by chemiluminescence system (GE Healthcare Europe GmbH). Compound of Formula (VIII) inhibited Ang II-induced ERK1+2 phosphorylation (FIG. 16B).

NFAT = assay: Gal4-NFAT / Gal4-Luc reporter assay in hICF; type: cell-based, human; settings: hICF transfected with Gal4-Luc and Gal4-NFAT, stimulated 6 hours
Method: hICF cells were transiently transfected for 24 hours with the Gal4-Luc reporter plasmid (which includes five Gal4 DNA binding sites fused to the luciferase gene) and the Gal4-NFAT1-415plasmid for 24 hours using Roti-Fect (Carl Roth GmbH & Co. KG, Karlsruhe, Germany). Then cells were stimulated for 6 hours and luciferase activity in the cell lysates was measured. The specific transactivation expressed as a percentage of activation relative to control. Compound of Formula (VIII) inhibited Ang II-induced NFAT activation (FIG. 16B).

Ang II-induced NFAT activation (luciferase) (NFAT): inhibited
SMILES: CCCCc1nc(Cl)c(CO)n1Cc1ccc(-c2ccccc2-c2nn[nH]n2)cc1 [Losartan, reference compound]
Ang II-induced ERK1+2 phosphorylation (ERK1+2): inhibited
